Consider 7 molecules from ChEMBL document CHEMBL1129154, “()-SCH 57939: synthesis and pharmacological properties of a potent, metabolically stable cholesterol absorption inhibitor” (1996).

What all share (type): functional, Cricetulus griseus
For assay [1], the system named is Cricetinae gen. sp. As to the kind of experiment: Compound was evaluated for the percent reduction in liver cholesterol ester levels in cholesterol fed hamster model at […].
Assay [2] concerns Cricetinae gen. sp. Briefly: Compound was evaluated in vivo for the cholesterol lowering activity in hamster model.
In assay [3] the test system is Cricetinae gen. sp. As to the kind of experiment: Compound was evaluated for the percent reduction in liver cholesterol ester levels in cholesterol fed hamster model at 1 mg/kg.
In assay [4] the test system is Cricetinae gen. sp. Briefly: Compound was evaluated for the percent reduction in liver cholesterol ester levels in cholesterol fed hamster model at 10 mg/kg.
In assay [5] the test system is Cricetinae gen. sp. As to the kind of experiment: Compound was evaluated for the percent reduction in liver cholesterol ester levels in cholesterol fed hamster model at 10 mpk.
Assay [6] relates to Cricetinae gen. sp. As to the kind of experiment: Compound was evaluated for the percent reduction in liver cholesterol ester levels in cholesterol fed hamster model at 0.3 mg/kg.

SMILES strings stand for the structures.

For `O=C1[C@@H]([C@H](O)COc2ccc(F)cc2)[C@@H](c2ccc(O)cc2)N1c1ccc(F)cc1`, in the assay with Cricetinae gen. sp. [1], the L/CE worked out at 0%.
For the molecule `COc1ccc([C@@H]2[C@@H]([C@H](O)COc3ccc(F)cc3)C(=O)N2c2ccccc2)cc1`, the ED50 in the assay with Cricetinae gen. sp. [2] (Cricetinae gen. sp., read-out: ED50) is 0.3 mg/kg. Also, the L/CE in the assay with Cricetinae gen. sp. [3] (1 mg/kg) is -84%.
`O=C1[C@H]([C@H](O)COc2ccc(F)cc2)[C@@H](c2ccc(O)cc2)N1c1ccc(F)cc1` (racemic) registered an ED50 in the assay on Cricetinae gen. sp. [2] of 0.7 MPK. The L/CE with Cricetinae gen. sp. [3] is recorded as -38%.
Take `COc1ccc([C@@H]2N(c3ccccc3)C(=O)[C@]2(C)[C@@H](O)COc2ccc(F)cc2)cc1` (racemic): the L/CE in the assay on Cricetinae gen. sp. [4] is recorded as -48%.
Regarding `O=C1[C@H]([C@@H](O)COc2ccc(F)cc2)[C@H](c2ccc(O)cc2)N1c1ccc(F)cc1` (racemic), in the assay on Cricetinae gen. sp. [5], the L/CE is on record as -39%.
`COc1ccc([C@@H]2[C@@H]([C@H](O)COc3ccc(F)cc3)C(=O)N2c2ccccc2)cc1` (racemic): in the assay with Cricetinae gen. sp. [3] (1 mg/kg), the L/CE is on record as -57%.
The molecule `O=C1[C@H]([C@H](O)COc2ccc(F)cc2)[C@@H](c2ccc(O)cc2)N1c1ccc(F)cc1` displayed an ED50 in the assay on Cricetinae gen. sp. [2] of 0.27 MPK. For the same molecule, the L/CE in the assay with Cricetinae gen. sp. [6] is -70%.
